From US7659404B2, “Broad spectrum 2-(substituted-amino)-benzothiazole sulfonamide HIV protease inhibitors” (Tibotec Pharmaceuticals Ltd., priority 2001, dated 2010)

Assays:
wild type virus (IIIB) = assay: HIV-AVE-MT4-MTT cellular assay, wild type virus (IIIB); assay type: cell-based; details: MT4 cells, MTT; for HIV-AVE-MT4-MTT-IIIB-2-002 pEC50: wild type virus (IIIB); for EC50: Human immunodeficiency virus 1, IIIB, MT4, wild type virus (IIIB), read-out: HIV-AVE-MT4-MTT-IIIB-2-002 pEC50 (converted)
Procedure: (§1) HIV- or mock-infected MT4 cells were incubated for five days in the presence of various concentrations of the inhibitor. At the end of the incubation period, all HIV-infected cells have been killed by the replicating virus in the control cultures in the absence of any inhibitor. Cell viability is measured by measuring the concentration of MTT, a yellow, water soluble tetrazolium dye that is converted to a purple, water insoluble formazan in the mitochondria of living cells only. Upon solubilization of the resulting formazan crystals with isopropanol, the absorbance of the solution is monitored at 540 nm. The values correlate directly to the number of living cells remaining in the culture at the completion of the five day incubation. The inhibitory activity of the compound was monitored on the virus-infected cells and was expressed as EC50 and EC90. These values represent the amount of the compound required to protect 50% and 90%, respectively, of the cells from the cytopathogenic effect of the virus. The toxicity of the compound was measured on the mock-infected cells and was expressed as CC50, which represents the concentration of compound required to inhibit the growth of the cells by 50%. The selectivity index (SI) (ratio CC50/EC50) is an indication of the selectivity of the anti-HIV activity of the inhibitor.

virus strain F (R13025) = assay: microbe, parasite or virus in culture; assay type: cell-based, HIV; details: for HIV-AVE-MT4-MTT-R13025-2-002 pEC50: virus strain F (R13025), MT4 cells; for EC50: Human immunodeficiency virus 1, MT4, read-out: HIV-AVE-MT4-MTT-R13025-2-002 pEC50, virus strain F (R13025), MT4 cells, MTT (converted)
Procedure: as §1, with “At the end of the incubation period, all HIV-infected cells have been killed by the replicating virus in the control cultures in the absence of any inhibitor.” left out
(§2) Because of the increasing emergence of drug resistant HIV strains, the present compounds were tested for their potency against clinically isolated HIV strains harboring several mutations.
(§3) As a measure of the broad spectrum activity of the present compounds, the fold resistance (FR) defined as FR=EC50(mutant strain)/EC50(HIV-1 strain LAI).

virus strain S (R13080) = assay: microbe, parasite or virus in culture; assay type: cell-based, HIV; details: for HIV-AVE-MT4-MTT-R13080-2-002 pEC50: virus strain S (R13080), MT4 cells; for EC50: Human immunodeficiency virus 1, MT4, read-out: HIV-AVE-MT4-MTT-R13080-2-002 pEC50, virus strain S (R13080), MT4 cells, MTT (converted)
Procedure: as §1, with “At the end of the incubation period, all HIV-infected cells have been killed by the replicating virus in the control cultures in the absence of any inhibitor.” left out
as §2, §3

Row | Structure (SMILES) | EC50 (wild type virus (IIIB)) | EC50 (virus strain F (R13025)) | EC50 (virus strain S (R13080)) | also measured
1 | CC(C)CN(C[C@@H](O)[C@H](Cc1ccccc1)NC(=O)O[C@H]1CO[C@H]2OCC[C@H]21)S(=O)(=O)c1ccc2nc(N(C)CCCN(C)C)sc2c1 [Compound 141] | – | – | – | HIV-AVE-MT4-MTT-IIIB-2-002 pEC50 (wild type virus (IIIB)): 7.83; HIV-AVE-MT4-MTT-R13025-2-002 pEC50 (virus strain F (R13025)): 6.49; HIV-AVE-MT4-MTT-R13080-2-002 pEC50 (virus strain S (R13080)): 6.02
2 | CC(C)CN(C[C@@H](O)[C@H](Cc1ccccc1)NC(=O)OCc1cncs1)S(=O)(=O)c1ccc2nc(C(C)C(=O)CCCC(=O)O)sc2c1 (stereo partly drawn) [Compound 160] | 51.3 nM | 479 nM | 2450 nM | –
3 | Cc1cccc(C)c1OCC(=O)N[C@@H](Cc1ccccc1)[C@H](O)CN(CC(C)C)S(=O)(=O)c1ccc2nc(NC(=O)C3CCN(C)CC3)sc2c1 [Compound 127] | 16.6 nM | 31.6 nM | 135 nM | –
4 | Cc1cccc(C)c1OCC(=O)N[C@@H](Cc1ccccc1)[C@H](O)CN(CC(C)C)S(=O)(=O)c1ccc2nc(N(C)CCN3CCCC3)sc2c1 [Compound 115] | 759 nM | 6170 nM | 10000 nM | –
5 | CC(C)CN(C[C@@H](O)[C@H](Cc1ccccc1)NC(=O)OC(C)(C)C)S(=O)(=O)c1ccc2nc(NCc3ccccn3)sc2c1 [Compound 119] | – | – | – | HIV-AVE-MT4-MTT-IIIB-2-002 pEC50 (wild type virus (IIIB)): 6.48
6 | CC(C)CN(C[C@@H](O)[C@H](Cc1ccccc1)NC(=O)OCc1cncs1)S(=O)(=O)c1ccc2nc(NC(=O)c3ccc[nH]3)sc2c1 [Compound 179] | 8.91 nM | 57.5 nM | 47.9 nM | –
7 | CC(C)CN(C[C@@H](O)[C@H](Cc1ccccc1)NC(=O)OCc1cncs1)S(=O)(=O)c1ccc2nc(NC(=O)CN3CCN(C)CC3)sc2c1 [Compound 156] | 7.24 nM | – | 27.5 nM | HIV-AVE-MT4-MTT-R13025-2-002 pEC50 (virus strain F (R13025)): 8.27
8 | CC(C)CN(C[C@@H](O)[C@H](Cc1ccccc1)NC(=O)OCc1cncs1)S(=O)(=O)c1ccc2nc(NC(=O)CN3CCNCC3)sc2c1 [Compound 157] | – | – | – | HIV-AVE-MT4-MTT-IIIB-2-002 pEC50 (wild type virus (IIIB)): 7.54; HIV-AVE-MT4-MTT-R13025-2-002 pEC50 (virus strain F (R13025)): 7.5; HIV-AVE-MT4-MTT-R13080-2-002 pEC50 (virus strain S (R13080)): 6.85
9 | CC(C)CN(C[C@@H](O)[C@H](Cc1ccccc1)NC(=O)C(NC(=O)CNCc1cccc(F)c1)C(C)(C)C)S(=O)(=O)c1ccc2nc(NCCN3CCCC3)sc2c1 (stereo partly drawn) [Compound 189] | 44.7 nM | 102 nM | 138 nM | –
10 | CC(C)CN(C[C@@H](O)[C@H](Cc1ccccc1)NC(=O)OCc1cncs1)S(=O)(=O)c1ccc2nc(NC(=O)c3ccno3)sc2c1 [Compound 172] | 42.7 nM | 245 nM | 813 nM | –
11 | CC(C)CN(C[C@@H](O)[C@H](Cc1ccccc1)NC(=O)OCc1cncs1)S(=O)(=O)c1ccc2nc(N(C)C(=O)CN3CCOCC3)sc2c1 [Compound 174] | – | – | – | HIV-AVE-MT4-MTT-IIIB-2-002 pEC50 (wild type virus (IIIB)): 8.04; HIV-AVE-MT4-MTT-R13025-2-002 pEC50 (virus strain F (R13025)): 6.88; HIV-AVE-MT4-MTT-R13080-2-002 pEC50 (virus strain S (R13080)): 6.18
12 | CC(C)CN(C[C@@H](O)[C@H](Cc1ccccc1)NC(=O)OC1CCSC1)S(=O)(=O)c1ccc2nc(NCCN(C)C)sc2c1 (stereo partly drawn) [Compound 146] | 9.55 nM | 302 nM | 1000 nM | –
13 | COc1cc(C(=O)Nc2nc3ccc(S(=O)(=O)N(CC(C)C)C[C@@H](O)[C@H](Cc4ccccc4)NC(=O)COc4c(C)cccc4C)cc3s2)cc(OC)c1O [Compound 116] | 31.6 nM | 32.4 nM | 43.7 nM | –
14 | CC(C)CN(C[C@@H](O)[C@H](Cc1ccccc1)NC(=O)O[C@H]1CO[C@H]2OCC[C@H]21)S(=O)(=O)c1ccc2nc(NC(=O)c3cncs3)sc2c1 [Compound 177] | 37.2 nM | 7.59 nM | 49 nM | –
15 | CC(=O)Nc1nc2ccc(S(=O)(=O)N(CC(C)C)C[C@@H](O)[C@H](Cc3ccccc3)NC(=O)COc3ccon3)cc2s1 [Compound 102] | 12 nM | 132 nM | 955 nM | –
16 | Cc1cccc(C)c1OCC(=O)N[C@@H](Cc1ccccc1)[C@H](O)CN(CC(C)C)S(=O)(=O)c1ccc2nc(NC(=O)c3ccccn3)sc2c1 [Compound 140] | – | – | – | HIV-AVE-MT4-MTT-IIIB-2-002 pEC50 (wild type virus (IIIB)): 8.34; HIV-AVE-MT4-MTT-R13025-2-002 pEC50 (virus strain F (R13025)): 8.12
17 | CC(C)CN(C[C@@H](O)[C@H](Cc1ccccc1)NC(=O)[C@@H](NC(=O)CNCc1cccc(F)c1)C(C)(C)C)S(=O)(=O)c1ccc2nc(NCCN3CCCC3)sc2c1.O=C(O)C(F)(F)F.O=C(O)C(F)(F)F [Compound 85, N′-[(3-fluorophenyl)methyl]glycyl-N-[(1S,2R)-2-hydroxy-3-[(2-methylpropyl)[[2-[2-(pyrrolidin-1-yl)ethylamino]benzothiazol-6-yl]sulfonyl]amino]-1-(phenylmethyl)propyl]-3-methyl-L-Valinamide, bis-trifluoroacetate] | – | – | – | HIV-AVE-MT4-MTT-IIIB-2-002 pEC50 (wild type virus (IIIB)): 7.24
18 | Cc1cccc(C)c1OCC(=O)N[C@@H](Cc1ccccc1)[C@H](O)CN(CC(C)C)S(=O)(=O)c1ccc2nc(N(C)CCCN(C)C)sc2c1 [Compound 109] | 2090 nM | 4170 nM | – | –

Continued, in another order:

Row | EC50 (wild type virus (IIIB)) | Structure (SMILES) | EC50 (virus strain F (R13025)) | EC50 (virus strain S (R13080)) | also measured
19 | 724 nM | Cc1cccc(C)c1OCC(=O)N[C@@H](Cc1ccccc1)[C@H](O)CN(CC(C)C)S(=O)(=O)c1ccc2nc(N3CCOCC3)sc2c1 [Compound 136] | – | – | –
20 | 302 nM | CC(C)CN(C[C@@H](O)[C@H](Cc1ccccc1)NC(=O)OC(C)(C)C)S(=O)(=O)c1ccc2nc(NCc3ccccn3)sc2c1 [Compound 118] | – | – | –
21 | 66.1 nM | COC(=O)CCNc1nc2ccc(S(=O)(=O)N(CC(C)C)C[C@@H](O)[C@H](Cc3ccccc3)NC(=O)COc3c(C)cccc3C)cc2s1 [Compound 135] | – | – | –
22 | 2000 nM | CC(C)CN(C[C@@H](O)[C@H](Cc1ccccc1)NC(=O)OC(C)(C)C)S(=O)(=O)c1ccc2nc(N(C)CCCN3CCCC3)sc2c1 [Compound 124] | – | – | –
23 | 316 nM | CC(C)CN(C[C@@H](O)[C@H](Cc1ccccc1)NC(=O)OC(C)(C)C)S(=O)(=O)c1ccc2nc(NCCc3ccccn3)sc2c1 [Compound 120] | – | – | –
24 | 66.1 nM | CC(=O)Nc1nc2ccc(S(=O)(=O)N(CC(C)C)C[C@@H](O)[C@H](Cc3ccccc3)NC(=O)COc3c(C)cc([N+](=O)[O-])cc3C)cc2s1 [Compound 104] | – | – | –
25 | 58.9 nM | Cc1cccc(C)c1OCC(=O)N[C@@H](Cc1ccccc1)[C@H](O)CN(CC(C)C)S(=O)(=O)c1ccc2nc(NCc3cccnc3)sc2c1 [Compound 130] | – | – | –
26 | 1580 nM | CC(C)CN(C[C@@H](O)[C@H](Cc1ccccc1)NC(=O)OC(C)(C)C)S(=O)(=O)c1ccc2nc(N(C)CCN3CCCC3)sc2c1 [Compound 123] | – | – | –
27 | 51.3 nM | CC(C)CN(C[C@@H](O)[C@H](Cc1ccccc1)NC(=O)OCc1cncs1)S(=O)(=O)c1ccc2nc(NCCN(C)C(=O)OC(C)(C)C)sc2c1 [Compound 149] | – | – | –
28 | 63.1 nM | Cc1cccc(C)c1OCC(=O)N[C@@H](Cc1ccccc1)[C@H](O)CN(CC(C)C)S(=O)(=O)c1ccc2nc(NCc3ccccn3)sc2c1 [Compound 129] | – | – | –
29 | 240 nM | CC(C)CN(C[C@@H](O)[C@H](Cc1ccccc1)NC(=O)O[C@@H]1COC2OCCNC21)S(=O)(=O)c1ccc2nc(NCCN3CCCC3)sc2c1 (stereo partly drawn) [Compound 101] | – | – | –
30 | 1200 nM | CC(C)CN(C[C@@H](O)[C@H](Cc1ccccc1)NC(=O)OC(C)(C)C)S(=O)(=O)c1ccc2nc(N3CCOCC3)sc2c1 [Compound 122] | – | – | –
31 | 1700 nM | Cc1cccc(C)c1OCC(=O)N[C@@H](Cc1ccccc1)[C@H](O)CN(CC(C)C)S(=O)(=O)c1ccc2nc(N(C)CCN3CCOCC3)sc2c1 [Compound 137] | – | – | –
32 | 64.6 nM | Cc1cccc(C)c1OCC(=O)N[C@@H](Cc1ccccc1)[C@H](O)CN(CC(C)C)S(=O)(=O)c1ccc2nc(NCCc3ccccn3)sc2c1 [Compound 132] | – | – | –
33 | 339 nM | Cc1cccc(C)c1OCC(=O)N[C@@H](Cc1ccccc1)[C@@H](CN(CC(C)C)S(=O)(=O)c1ccc2nc(NC(=O)c3ccccc3)sc2c1)OC(=O)c1ccncc1 [Compound 147] | – | – | –
34 | 5620 nM | CC(C)CN(C[C@@H](O)[C@H](Cc1ccccc1)NC(=O)OC(C)(C)C)S(=O)(=O)c1ccc2nc(N3CCC[C@@H]3C(=O)O)sc2c1 [Compound 142] | – | – | –
35 | 61.7 nM | Cc1cccc(C)c1OCC(=O)N[C@@H](Cc1ccccc1)[C@H](O)CN(CC(C)C)S(=O)(=O)c1ccc2nc(NCC3CCCO3)sc2c1 (stereo partly drawn) [Compound 134] | – | – | –
36 | 1450 nM | Cc1cccc(C)c1OCC(=O)N[C@@H](Cc1ccccc1)[C@H](O)CN(CC(C)C)S(=O)(=O)c1ccc2nc(N(C)CCCN3CCCC3)sc2c1 [Compound 138] | – | – | –
